Columns and labels:
[1] = test system: resistance-trained males; assay: Skeletal muscle hypertrophy: ultrasonography muscle thickness of quadriceps (VL and VI); format: in vivo, human; details: for 12-week increases in quadriceps thicknesses: 12 weeks
[2] = test system: urinary 3-MH:Cr ratio; assay: 24 h urinary 3-methylhistidine:creatinine ratio (muscle protein degradation); format: in vivo, human; details: Mean ± SEM
Description: (§1) Prior to the study, participants were randomly assigned to receive either 3 g per day of HMB Free Acid (HMB) (combined with food-grade orange flavors and sweeteners), 400 mg per day of ATP (PEAK ATP®; TSI, Inc.), a combination of both 3 g of HMB and 400 mg per day of ATP, or a placebo (food-grade orange flavors and sweeteners) divided equally into three servings daily with the first serving given 30 minutes prior to exercise and the remaining two servings daily with the mid-day and evening meals. On the non-training days participants were instructed to consume one serving with each of three separate meals. The supplementation was continued daily throughout the training and testing protocols. Each serving was formulated with 1 gram of HMB free acid to account for fill and emptying variation and achieve a minimum effective dosage of 0.800 grams. This dosage would be equivalent to a 1 gram Ca-HMB dosage.
(§2) Samples were thawed one time and analyzed in duplicate for each analyte. All blood draws were scheduled at the same time of day to negate confounding influences of diurnal hormonal variations. Serum total and free testosterone, cortisol, and C-reactive protein (CRP) were assayed via ELISA kits obtained from Diagnostic Systems Laboratories (Webster, Tex.). All hormones were measured in the same assay on the same day to avoid compounded interassay variance. […] Serum creatine kinase (CK) was measured using colorimetric procedures at 340 nm (Diagnostics Chemicals, Oxford, Conn.). Twenty-four hour urine collections were made and 3-methylhistine was determined by previously described methods (Rathmacher et al 1992 and Wilson et al, 2013).
The rate of muscle protein degradation was evaluated by measuring urinary 3-MH:Cr ratio (Table 6).

[3] = test system: free testosterone; assay: Serum free testosterone ELISA; format: in vivo, human; details: for effect on free testosterone: main effect; for Free Testosterone: Mean ± SEM
Description: as §1
(§3) All blood draws throughout the study were obtained via venipuncture after a 12-hour fast by a trained phlebotomist. Whole blood was collected and transferred into appropriate tubes for obtaining serum and plasma and centrifuged at 1,500 g for 15 min at 4° C. Resulting serum and plasma were then aliquoted and stored at −80° C. until subsequent analyses.
as §2

[4] = test system: total testosterone; assay: Serum total testosterone ELISA; format: in vivo, human; details: for effect on total testosterone: main effect; for Total Testosterone: Mean ± SEM
Description: as §1, §3, §2

[5] = test system: resistance-trained males; assay: Perceived Recovery Status (PRS) scale; format: in vivo, human; details: for effect on PRS: 12-week study, vs placebo; for PRS (perceived recovery score): scale of 0-10, Mean ± SEM
Description: as §1
[…] The PRS scale consists of values between 0-10, with 0-2 being very poorly recovered and with anticipated declines in performance, 4-6 being low to moderately recovered and expected similar performance, and 8-10 representing high perceived recovery with expected increases in performance.

[6] = test system: resistance-trained males; assay: Vertical jump peak power on force platform; format: in vivo, human; details: for vertical jump power increase: over the 12-weeks of training; for decrease in vertical jump power during the overreaching cycle: over weeks 9 and 10
Description: Measurements of PP were also taken during a vertical jump (VJ) test performed on a multi-component AMTI force platform (Advanced Mechanical Technology, Inc., Watertown, Mass.), interfaced with a personal computer at a sampling rate of 1000 Hz (51). Data acquisition software (LabVIEW, version 7.1; National Instruments Corporation, Austin, Tex.) was used to calculate PP. Peak power was calculated as the peak combination of ground reaction force and peak velocity during the accelerated launch on the platform. The ICC of VJ power was 0.97. Prior to the study, participants were randomly assigned to receive either 3 g per day of HMB Free Acid (HMB) (combined with food-grade orange flavors and sweeteners), 400 mg per day of ATP (PEAK ATP®; TSI, Inc.), a combination of both 3 g of HMB and 400 mg per day of ATP, or a placebo (food-grade orange flavors and sweeteners) divided equally into three servings daily with the first serving given 30 minutes prior to exercise and the remaining two servings daily with the mid-day and evening meals. On the non-training days participants were instructed to consume one serving with each of three separate meals. The supplementation was continued daily throughout the training and testing protocols. […] This dosage would be equivalent to a 1 gram Ca-HMB dosage. All participants performed a high volume resistance training protocol during the 12-week study. The phases of the study and measurements taken are shown in FIG. 1, and the exercise protocols for each phase of the study are shown in Tables 1 to 3. The training was divided into 3 phases, with Phase 1 consisting of daily undulating periodization (weeks 1 to 8), Phase 2 consisting of the overreaching cycle (weeks 9 and 10), and Phase 3 consisting of the taper cycle (weeks 11 and 12).

[7] = test system: skeletal muscle; details: acute ingestion of 2.4 grams; cited from earlier work
[8] = after HMB is fed; cited from earlier work
[9] = after administration; cited from earlier work

CC(C)(O)CC(=O)O [HMB-FA, β-hydroxy-β-methylbutyric acid]
12-week increases in quadriceps thicknesses [1]: 7.1±1.2 mm
Quad (quadriceps muscle thickness) ([1]; week 0 (baseline)): 50.7 ± 1.5 mm
Quad (quadriceps muscle thickness) ([1]; week 4): 53.6 ± 1.4 mm
Quad (quadriceps muscle thickness) ([1]; week 8): 56.0 ± 1.4 mm
Quad (quadriceps muscle thickness) ([1]; week 12): 57.8 ± 1.6 mm
24 h 3MH:Cr ([2]; week 0 (baseline)): 0.127 ± 0.004 μmol:mg
24 h 3MH:Cr ([2]; week 1): 0.122 ± 0.002 μmol:mg
24 h 3MH:Cr ([2]; week 8): 0.124 ± 0.008 μmol:mg
24 h 3MH:Cr ([2]; week 9 (overreaching)): 0.120 ± 0.003 μmol:mg
24 h 3MH:Cr ([2]; week 10 (overreaching)): 0.141 ± 0.004 μmol:mg
effect on free testosterone [3]: no main effect differences
Free Testosterone ([3]; week 0 (baseline)): 109 ± 10 ng/dL
Free Testosterone ([3]; week 1): 104 ± 8 ng/dL
Free Testosterone ([3]; week 4): 116 ± 11 ng/dL
Free Testosterone ([3]; week 8): 115 ± 9 ng/dL
Free Testosterone ([3]; week 9 (overreaching)): 118 ± 8 ng/dL
Free Testosterone ([3]; week 10 (overreaching)): 116 ± 8 ng/dL
Free Testosterone ([3]; week 12): 127 ± 8 ng/dL
effect on total testosterone [4]: no main effect differences
Total Testosterone ([4]; week 0 (baseline)): 708 ± 35 ng/dL
Total Testosterone ([4]; week 1): 708 ± 48 ng/dL
Total Testosterone ([4]; week 4): 730 ± 63 ng/dL
Total Testosterone ([4]; week 8): 652 ± 35 ng/dL
Total Testosterone ([4]; week 9 (overreaching)): 752 ± 61 ng/dL
Total Testosterone ([4]; week 10 (overreaching)): 701 ± 34 ng/dL
Total Testosterone ([4]; week 12): 728 ± 39 ng/dL
effect on PRS [5]: improved PRS
PRS (perceived recovery score) ([5]; week 0 (baseline)): 9.1 ± 0.3
PRS (perceived recovery score) ([5]; week 1): 6.3 ± 0.3
PRS (perceived recovery score) ([5]; week 4): 7.6 ± 0.3
PRS (perceived recovery score) ([5]; week 8): 8.5 ± 0.3
PRS (perceived recovery score) ([5]; week 9 (overreaching)): 8.0 ± 0.2
PRS (perceived recovery score) ([5]; week 10 (overreaching)): 7.7 ± 0.2
PRS (perceived recovery score) ([5]; week 12): 9.5 ± 0.2
vertical jump power increase [6]: 991±51 watts
decrease in vertical jump power during the overreaching cycle [6]: 1.4±0.4%
change in protein breakdown [7]: −56%
change in skeletal muscle protein synthesis [7]: +70%
loss of HMB to urine [8]: 20-50%
plasma levels of HMB compared with calcium HMB [9]: approximately double the plasma levels of HMB
time to plasma levels compared with calcium HMB [9]: about one-quarter the time

Nc1ncnc2c1ncn2[C@@H]1O[C@H](COP(=O)(O)OP(=O)(O)OP(=O)(O)O)[C@@H](O)[C@H]1O [ATP, Adenosine-5′-triphosphate]
12-week increases in quadriceps thicknesses [1]: 4.9±1.0 mm
Quad (quadriceps muscle thickness) ([1]; week 0 (baseline)): 50.9 ± 0.9 mm
Quad (quadriceps muscle thickness) ([1]; week 4): 53.4 ± 1.3 mm
Quad (quadriceps muscle thickness) ([1]; week 8): 54.8 ± 1.7 mm
Quad (quadriceps muscle thickness) ([1]; week 12): 55.8 ± 1.8 mm
24 h 3MH:Cr ([2]; week 0 (baseline)): 0.136 ± 0.008 μmol:mg
24 h 3MH:Cr ([2]; week 1): 0.127 ± 0.007 μmol:mg
24 h 3MH:Cr ([2]; week 8): 0.143 ± 0.007 μmol:mg
24 h 3MH:Cr ([2]; week 9 (overreaching)): 0.143 ± 0.008 μmol:mg
24 h 3MH:Cr ([2]; week 10 (overreaching)): 0.131 ± 0.012 μmol:mg
effect on free testosterone [3]: no main effect differences
Free Testosterone ([3]; week 0 (baseline)): 112 ± 13 ng/dL
Free Testosterone ([3]; week 1): 114 ± 9 ng/dL
Free Testosterone ([3]; week 4): 118 ± 6 ng/dL
Free Testosterone ([3]; week 8): 117 ± 11 ng/dL
Free Testosterone ([3]; week 9 (overreaching)): 108 ± 7 ng/dL
Free Testosterone ([3]; week 10 (overreaching)): 110 ± 10 ng/dL
Free Testosterone ([3]; week 12): 125 ± 13 ng/dL
effect on total testosterone [4]: no main effect differences
Total Testosterone ([4]; week 0 (baseline)): 660 ± 67 ng/dL
Total Testosterone ([4]; week 1): 645 ± 54 ng/dL
Total Testosterone ([4]; week 4): 695 ± 60 ng/dL
Total Testosterone ([4]; week 8): 645 ± 60 ng/dL
Total Testosterone ([4]; week 9 (overreaching)): 621 ± 49 ng/dL
Total Testosterone ([4]; week 10 (overreaching)): 592 ± 84 ng/dL
Total Testosterone ([4]; week 12): 673 ± 69 ng/dL
effect on PRS [5]: improved PRS scores after the overreaching cycle at weeks 10 and 12
PRS (perceived recovery score) ([5]; week 0 (baseline)): 9.6 ± 0.2
PRS (perceived recovery score) ([5]; week 1): 4.9 ± 0.4
PRS (perceived recovery score) ([5]; week 4): 7.5 ± 0.3
PRS (perceived recovery score) ([5]; week 8): 8.2 ± 0.3
PRS (perceived recovery score) ([5]; week 9 (overreaching)): 5.5 ± 0.4
PRS (perceived recovery score) ([5]; week 10 (overreaching)): 5.5 ± 0.4
PRS (perceived recovery score) ([5]; week 12): 8.6 ± 0.4
vertical jump power increase [6]: 796±75 watts
decrease in vertical jump power during the overreaching cycle [6]: 2.2±0.4%
